The values that follow come from paper PMC6928678, “Simplified Head-to-Tail Cyclic Polypeptides as Biomaterial-Associated Antimicrobials with Endotoxin Neutralizing and Anti-Inflammatory Capabilities” (International Journal of Molecular Sciences, 2019).

Values after ≈ are worked out from the molar mass of the structure shown. Where a SMILES comes first, the peptide text is derived from it. [ ]: non-standard residue; d: D form. Orn = NCCC[C@H](N)C(=O)O

In one data set the test system is LPS. Briefly: Surface plasmon resonance of peptide-LPS interaction. As to conditions: peptide on CM5 chip, LPS 3.125–50 µg/mL, 20 mM Tris, 100 mM NaCl, pH 7.4. It is filed as binding. On the procedure:
Figure 3 (A) The combining ability of OIR3 and gramicidin S (GS; 0.5 μM, 1 μM, 2 μM, […], 8 μM, 16 μM and 32 μM) with lipopolysaccharide (LPS). (B) SPR spectroscopy of the interaction kinetics of the peptides and LPS. The peptides were immobilized on a CM5 sensor chip as a ligand, and LPS was diluted in a series of concentrations (3.125, 6.25, 12.5, 25 and 50 μg/mL). Data shown are three independent experiments.
Surface plasmon resonance (SPR) is a method commonly used to study protein–protein interactions. The main advantage of SPR is that it provides the ability to measure the binding affinities and association/dissociation kinetics of complexes in real time, in a label-free environment, and using relatively small quantities of materials. Real-time binding interactions between peptides and LPS were measured by using the Biacore 3000 instrument (GE Healthcare, Waukesha, Wisconsin, USA). In […] sodium acetate buffer (pH 5.5), the cyclic antimicrobial peptides OIR3, IR3, DIR3 and GS were diluted to an optimum fixed concentration of 25.6 µM, and then covalently immobilized on the CM5 sensor chip; nearly 1100 resonant units (RU) of the peptide were captured. All measurements were performed in 20 mM Tris buffer (pH 7.4) containing 100 mM NaCl. […]
In general terms: In SPR one partner is held on a chip, and binding of the other changes the refractive index at the surface.

The subject of the next data set is E. coli 25922. Put plainly: microbe, parasite or virus in culture. It is filed as cell-based, Escherichia coli. As to conditions: 25922, 20 h. On the procedure:
(§1) The test strains, including Gram-negative E. coli ATCC25922, E. coli ATCC 1005, S. typhimurium C7731, P. aeruginosa ATCC 27853, S. Typhimurium 14028, Gram-positive S. aureus ATCC29213, S. aureus ATCC 25923, S. epidermidis ATCC 12228 and S. aureus 43300, were obtained from the School of Veterinary Medicine, Northeast Agricultural University (Harbin, China).
(§2) Briefly, the bacteria were incubated overnight at 37 °C with constant shaking at 220 rpm, then were transferred to new MH broth (MHB) medium until they reached the logarithmic phase of growth. The bacteria were then diluted to 10^5 (CFU)/mL in MHB. The peptides were dissolved and diluted in 0.01% acetic acid and 0.2% bovine serum albumin (BSA) at various concentrations (0.5–128 μM) in each well of sterile 96-well plates and incubated for 20 h at 37 °C. […] The test was repeated three times.

The next data set deals with E. coli UB 1005. Briefly: microbe, parasite or virus in culture. The format is cell-based, Escherichia coli. Conditions: UB 1005, 20 h. How it is done: as §1, §2
The subject of data set [1] is human red blood cells (hRBCs). Put plainly: Hemolysis assay. The format is cell-based. As to conditions: red cells of human, 1 h. How it is done: Figure 2 (A) Hemolytic activity of the engineered peptides against human red blood cells (hRBCs). The hRBCs were incubated with equal amounts of the respective peptides dissolved in PBS for 1 h at 37 °C. (B) Cytotoxicity of the engineered peptides against RAW264.7. […] Data shown are three independent experiments.
The hemolytic activity of the peptides is determined by measuring the amount of hemoglobin released during the lysis of human erythrocytes at different concentrations of AMPs. Briefly, fresh, healthy human red blood cells (hRBCs) were collected and then washed three times with phosphate-buffered saline (PBS) buffer (pH 7.2) and centrifuged at 1000× g for 5 min. Each 50 µL sample of hRBCs was incubated with 50 µL of the respective peptide dissolved in PBS in a well of a 96-well plate for 1 h at 37 °C. After incubation, the samples were centrifuged at 1000× g for 5 min and the supernatants (50 μL) were transferred to a new 96-well microplate. The release of hemoglobin was measured by monitoring the OD at 570 nm (Tecan, Salzburg, Austria). Negative (hRBCs without AMP treatment) and positive (hRBCs treated with 0.1% TritonX-100) controls were used. The concentration of peptide that caused 5% hemolysis was considered the minimal hemolysis concentration (MHC). The test was repeated three times. The percent hemolysis was calculated using the following formula:(2) Percent hemolysis=A−A0/At−A0× 100% A0 and At represent 0% and 100% hemolysis as measured in 10 mM PBS and 0.2% Triton X-100, respectively.

Data set [2] concerns all the 9 bacteria tested. Briefly: Geometric mean of MICs, all 9 bacteria. It is filed as cell-based. As to conditions: for GM MIC (range of Gram-negative and Gram-positive geometric means): Table 2; for tGM, geometric mean of the MICs against all the 9 bacteria: all 9 bacteria tested. How it is done:
as §2

The subject of data set [3] is gram-positive strains tested. Briefly: organism not typed. The format is cell-based. Conditions: 20 h. On the procedure:
as §2

For data set [4], the system named is oxazolone-induced ear edema. Put plainly: Oxazolone-induced skin inflammation (allergic dermatitis model). As to conditions: for ear thickness and ear punch weight: mice, topical 0.5%, 1% or 2% w/v on right ear, 24 h after treatment.
Description: ICR mice (male, 4–6 weeks old, and 18–22 g) were obtained from the Experimental Animal Center of Harbin Medical University.
4-Ethoxymethylene-2-phenyl-2-oxazolin-5-one (oxazolone, OXA) was used to induce ear edema in mice [66]. […] The fur was clipped from each animal’s abdomen the day before the experiment was conducted. On the day of the experiment (day 0), 50 ul 3% oxazolone induction solution (prepared in a 5:1 (v/v) mixture of acetone: corn oil carrier) was applied to all mice as a single topical application to the shaved abdomen. After 5 days, 50 µL of 1% oxazolone challenge solution (prepared in acetone) was applied as a single topical application to the dorsal area of the right ear for 1 h. Of the peptide solution, vehicle control or positive control (dexamethasone) solution 20 µL was applied topically to the dorsal area of the right ear. The left ear was used as a control. 24 h later, the mice were euthanized by cervical dislocation under ether anesthesia, and two ear punches (6 mm, i.d.) were collected and weighed. The degree of edema and the increase in ear thickness were determined by the increase in the weight and thickness of the right ear punch when compared with that of the left ear.
(4) Ear weight increase %=[Right ear weight (mg)− Left ear weight (mg)]/Left ear weight (mg)× 100%
(5) Increase of the ear thickness% =Right ear thickness (mm)−Left ear thinkcess (mm)/Left ear thickness×100%
Mouse ear tissues were ground in liquid nitrogen and 1 mL of Trizol was added. The total RNA content in each group of ears was extracted using the conventional Trizol method. qRT-PCR was used to measure the mRNA level of inflammatory cytokines TNF-α, IL-6 and IL-1β in mouse ear tissues. One microgram total of RNA was reverse transcribed using M-MLV reverse transcriptase (Takara, Japan). qRT-PCR was performed using a SYBR Green Mix kit (Takara, Japan) with a 7500 Real-Time PCR system according to the manufacturer’s instructions. The mRNA expression levels were normalized to β-actin using the (2^−∆∆Ct) method. The gene expression was normalized to the corresponding mGAPDH level. […]
The test system of a further data set is MRSA43300. Put plainly: microbe, parasite or virus in culture. It is filed as cell-based, Methicillin-resistant Staphylococcus aureus. As to conditions: 20 h. On the procedure: as §1, §2
Another data set concerns S. typhimurium 7731. Put plainly: microbe, parasite or virus in culture. As to conditions: 7731, 20 h. The format is cell-based. On the procedure:
as §1, §2

For the next data set, the system named is P. aeruginosa 27853. Briefly: microbe, parasite or virus in culture. It is filed as cell-based. Conditions: 27853, 20 h; read-out: MIC. On the procedure: as §1, §2
The test system of a further data set is S. epidermidis 12228. Briefly: microbe, parasite or virus in culture. The format is cell-based. As to conditions: 12228, 20 h. On the procedure: as §1, §2
The next data set has as its system S. typhimurium 14028. Put plainly: microbe, parasite or virus in culture. Conditions: 14028, 20 h. It is filed as cell-based. On the procedure: as §1, §2
The test system of another data set is E. coli ATCC 25,922. Put plainly: Flow cytometry membrane integrity assay (PI uptake). The format is cell-based. Conditions: PI 10 ug/mL, 30 min at 4 °C. How it is done:
Figure 7 Flow cytometric analysis. Exponential phase E. coli cells were treated with GS, OIR3 and cellular fluorescence was analyzed by flow cytometry.
Membrane integrity assay. […] FACS flow cytometer (Becton–Dickinson, Franklin Lake, New Jersey, USA USA) was used to obtain the data with a laser excitation wavelength of 488 nm.

Consider `CC(C)C[C@@H]1NC(=O)[C@H](CCCN)NC(=O)[C@H](C(C)C)NC(=O)[C@@H]2CCCN2C(=O)[C@@H](Cc2ccccc2)NC(=O)[C@H](CC(C)C)NC(=O)[C@H](CCCN)NC(=O)[C@H](C(C)C)NC(=O)[C@@H]2CCCN2C(=O)[C@@H](Cc2ccccc2)NC1=O` [GS, gramicidin S, reference compound] (cyclo(V[Orn]L[dF]PV[Orn]L[dF]P)), for which, in the data set with LPS, the “binding of LPS to immobilized peptide (SPR)” value was “weak binding to LPS at high concentrations and almost no binding at the low concentrations”. Besides, the MIC in the data set on E. coli 25922 is reported as 4 µM (≈ 4.57 µg/mL); with E. coli UB 1005 it was 4 µM (≈ 4.57 µg/mL); in the data set with MRSA43300, 2 µM (≈ 2.28 µg/mL); in the data set with S. typhimurium 7731, 8 µM (≈ 9.13 µg/mL); in the data set on P. aeruginosa 27853 it was 4 µM (≈ 4.57 µg/mL); with S. epidermidis 12228 it was 2 µM (≈ 2.28 µg/mL). This molecule gave an MIC against S. typhimurium 14028 of 16 µM (≈ 18.3 µg/mL). Moreover, the “MHC5, minimum hemolytic concentration that induced ≥5% hemolysis” value in data set [1] is on record as 8 µM. Further, the “GM MIC (range of Gram-negative and Gram-positive geometric means)” value in data set [2] lay in the range of 2 to 6.1 µM. Also, the “tGM, geometric mean of the MICs against all the 9 bacteria” value in data set [2] turned out to be 3.7 µM. Besides, the “pGM (+), geometric mean of the MICs against gram-positive strains” value in data set [3] amounted to 2 µM. For the same molecule, the “ear thickness and ear punch weight” value in data set [4] was “increased”. Moreover, the “percentage of PI-positive cells” value was determined as 7.3% in the data set with E. coli ATCC 25,922 (1/2× MIC (OIR3 1 µM, GS 2 µM)); 37.8% in the data set with E. coli ATCC 25,922 (1× MIC (OIR3 2 µM, GS 4 µM)); 93.3% with E. coli ATCC 25,922 (2× MIC (OIR3 4 µM, GS 8 µM)).
On to `CC[C@H](C)[C@@H]1NC(=O)[C@H](CCCNC(=N)N)NC(=O)[C@H]([C@@H](C)CC)NC(=O)[C@@H]2CCCN2C(=O)[C@H](CCCNC(=N)N)NC(=O)[C@H]([C@@H](C)CC)NC(=O)[C@H](CCCNC(=N)N)NC(=O)[C@H]([C@@H](C)CC)NC(=O)[C@H](CCCNC(=N)N)NC(=O)[C@H]([C@@H](C)CC)NC(=O)[C@@H]2CCCN2C(=O)[C@H](CCCNC(=N)N)NC(=O)[C@H]([C@@H](C)CC)NC(=O)[C@H](CCCNC(=N)N)NC1=O` [OIR3] (cyclo(IRIRIRPIRIRIRP)), for which, in the data set with LPS, the “binding of LPS to immobilized peptide (SPR)” value was “rapidly binds”. Besides, the MIC against E. coli 25922 is 2 µM (≈ 3.62 µg/mL); with E. coli UB 1005 it was 2 µM (≈ 3.62 µg/mL); against MRSA43300 it was 4 µM (≈ 7.24 µg/mL); in the data set on S. typhimurium 7731, 4 µM (≈ 7.24 µg/mL); in the data set on P. aeruginosa 27853, 8 µM (≈ 14.5 µg/mL); with S. epidermidis 12228, 4 µM (≈ 7.24 µg/mL). This molecule had an MIC against S. typhimurium 14028 of 4 µM (≈ 7.24 µg/mL). Further, in data set [1], the “MHC5, minimum hemolytic concentration that induced ≥5% hemolysis” value is listed as above 128 µM. Besides, the “GM MIC (range of Gram-negative and Gram-positive geometric means)” value in [2] was 3.5 to 4.0 µM. In data set [2], the “tGM, geometric mean of the MICs against all the 9 bacteria” value is 3.7 µM. In addition, in data set [3], the “pGM (+), geometric mean of the MICs against gram-positive strains” value is listed as 4.0 µM. For the same molecule, in [4], the “ear thickness and ear punch weight” value is given as “significantly reduced”. The “expression of mRNA of TNF-α, IL-1β and IL-6 in mouse ear tissue” value in [4] (qRT-PCR, oxazolone-induced skin inflammation) is “significantly down-regulated”. Besides, the “percentage of PI-positive cells” value in the data set with E. coli ATCC 25,922 (1/2× MIC (OIR3 1 µM, GS 2 µM)) worked out at 25%; in the data set on E. coli ATCC 25,922 (1× MIC (OIR3 2 µM, GS 4 µM)), 62%; in the data set with E. coli ATCC 25,922 (2× MIC (OIR3 4 µM, GS 8 µM)) it was 76.4%.
